Legend:
Type in all cases: cell-based
NCI-H226 cells = assay: Viability assay in NCI-H226 (Yap-dependent) cells, CyQUANT; conditions: Homo sapiens, NCI-H226 YAP dependent cell line, 96 hour incubation, group symbols
Experimental: (§1) Viability Assay in NCI-H226 (Yap-Dependent) and SW620 Yap KO (Yap Independent) Cells
(§2) The ability of YAP-TEAD inhibitors to inhibit tumor cell growth was evaluated using two different cell lines: NCI-H226, which is a YAP dependent cell line, and SW620 cells, where YAP and TAZ were knocked out using CRISPR to generate a YAP independent cell line.
(§3) For the assay, cells were treated in duplicates with the test compounds in a 10-point dose, 1:3 dilution steps, with the top concentration starting at 30 μM (final concentration in assay). After a 96 hour incubation at 37° C., 95% rH, and 5% CO2, a cell-permeant DNA-binding dye that stains only healthy cells (CyQUANT®, Promega) was added to the cells, allowing the quantification of cell viability.
(§4) Cell Media: The NCI-H226 cells were cultured in the following media: RPMI 1640, +10% FBS, +1× GlutaMAX, +10 mM HEPES, +0.5% Pen/Strep. The SW620-KO cells were cultured in the following media: DMEM/F-12, +10% FBS, +1× GlutaMAX, +10 mM HEPES, +0.5% Pen/Strep.
(§5) Reagents: The reagents used are listed below:
(§6) Cell culture: The cells were examined using an inverted microscope to check for health, cell density, etc. To dissociate adherent cells, the monolayer of cells was washed once with pre-warmed PBS. After removing the PBS, 3 ml pre-warmed Accutase was added to a F75 flask, dispersed evenly and the flask was allowed to sit in incubator for ˜4-5 minutes.
(§7) When a single cell suspension was obtained, 7 ml of prewarmed growth media was added and resuspended with the cells. The cell suspension was transferred to a sterile 15 ml conical centrifuge tube, and spun for 5 min at 300×g, RT. The supernatant was discarded and the pellet was resuspended in 10 ml of pre-warmed growth media.
(§8) The total cell count was determined, and 20 μl of the desired cell number was added to each well of a 384 well plate using a Multidrop Combi. The plates were then incubated for 24 hours at 37° C., 95% rH, and 5% CO2.
(§9) Compound treatment: 24 hours after seeding, the cells were treated with compounds.
(§10) A 1:333 dilution of compounds, diluted in DMSO, was made to get a final concentration of 0.3% DMSO per well. To transfer the compounds to the assay plate, 120 nl was shot from Labcyte low dead volume plates to the cell plates containing 20 μl media/well with the ECHO 555 liquid handling system. After treatment, the cells were fed with 20 μl fresh pre-warmed assay media using a Multidrop combi.
(§11) The assay plates were then incubated for 96 h at 37° C., 95% rH, and 5% CO2.
(§12) 96 h after treatment 30 μl of CyQuant® reagent was added to the assay plates using a Multidrop combi in the dark. The plates were then incubated for 1 hour at 37° C., 95% rH and 5% CO2. Thereafter, the assay plates were removed from the incubator and allowed to equilibrate to RT for 30 min in the dark without lid. Finally, they were measured using an EnVision microplate reader with a FITC bottom read program.

YAP-TEAD interaction = assay: SK-HEP-1 reporter assay (8x TEAD responsive elements driving NanoLuc luciferase); conditions: Homo sapiens, SK-HEP1, SK-HEP-1 cells, 24 hour incubation
In short: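 SK-HEP-1 cells carrying a stably integrated 8× TEAD-element NanoLuc reporter, seeded 24 h before dosing, were treated in duplicate with a 10-point dose series (top 30 μM final, 0.3% DMSO) for 24 h at 37°C, 5% CO2. Luciferase activity read by NanoGlo luminescence; IC50 derived from it.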

SW620 Yap KO cells = assay: Viability assay in SW620 Yap KO (Yap independent) cells, CyQUANT; conditions: Homo sapiens, SW-620, SW620 YAP and TAZ knocked out (YAP independent), 96 hour incubation, n.d. (x) = not detectable below threshold x
Experimental: as §1, §2, §3, §4, §5, §6, §7, §8, §9, §10, §11, §12

[1] = number, or n.d. (x) = not detectable below threshold x

Row | Compound | IC50 (NCI-H226 cells) [nM] | IC50 (YAP-TEAD interaction; group symbols) [nM] | IC50 (SW620 Yap KO cells) [nM] | IC50 (YAP-TEAD interaction; [1]) [nM]
1 | Cn1cc2c3cc(C(=O)O)sc3n([C@H]3CC[C@H](C(F)(F)F)CC3)c2n1 [Compound 52, 4-methyl-7-[(1r,4r)-4-(trifluoromethyl)cyclohexyl]-9-thia-4,5,7-triazatricyclo[6.3.0.0^2,6]undeca-1(8),2,5,10-tetraene-10-carboxylic acid] | 1 to 100 | 10 to 100 | > 30000 | 
2 | Cn1cc2c3cc(C(=O)NCCO)sc3n(-c3ccc(C(F)(F)F)cc3)c2n1 [Compound 64, N-(2-hydroxyethyl)-4-methyl-7-[4-(trifluoromethyl)phenyl]-9-thia-4,5,7-triazatricyclo[6.3.0.0^2,6]undeca-1(8),2,5,10-tetraene-10-carboxamide] | 1 to 100 |  | > 3000 | > 950
3 | Cn1cc2c3cc(C(=O)NCCN4CCOCC4)sc3n(-c3ccc(C(F)(F)F)cc3)c2n1 [Compound 65, 4-methyl-N-[2-(morpholin-4-yl)ethyl]-7-[4-(trifluoromethyl)phenyl]-9-thia-4,5,7-triazatricyclo[6.3.0.0^2,6]undeca-1(8),2,5,10-tetraene-10-carboxamide] | 100 to 1000 |  | > 3000 | > 300
4 | Cn1cc2c3cc(C(=O)NCc4ccccn4)sc3n(-c3ccc(C(F)(F)F)cc3)c2n1 [Compound 66, 4-methyl-N-[(pyridin-2-yl)methyl]-7-[4-(trifluoromethyl)phenyl]-9-thia-4,5,7-triazatricyclo[6.3.0.0^2,6]undeca-1(8),2,5,10-tetraene-10-carboxamide] | 1 to 100 |  | > 3000 | > 9500
5 | Cn1cc2c3cc(C(=O)N4CC[C@@H](O)C4)sc3n(-c3ccc(C(F)(F)F)cc3)c2n1 [Compound 67, (3R)-1-{4-methyl-7-[4-(trifluoromethyl)phenyl]-9-thia-4,5,7-triazatricyclo[6.3.0.0^2,6]undeca-1(8),2,5,10-tetraene-10-carbonyl}pyrrolidin-3-ol] | 100 to 1000 |  | > 3000 | > 9500
6 | C[C@@H](CO)NC(=O)c1cc2c3cn(C)nc3n(-c3ccc(C(F)(F)F)cc3)c2s1 [Compound 68, N-[(2S)-1-hydroxypropan-2-yl]-4-methyl-7-[4-(trifluoromethyl)phenyl]-9-thia-4,5,7-triazatricyclo[6.3.0.0^2,6]undeca-1(8),2,5,10-tetraene-10-carboxamide] | 1 to 100 |  | > 3000 | > 950

The next lines start with the values.

Row | IC50 (NCI-H226 cells) [nM] | IC50 (YAP-TEAD interaction; group symbols) [nM] | IC50 (SW620 Yap KO cells) [nM] | IC50 (YAP-TEAD interaction; [1]) [nM] | Compound
7 | 1 to 100 |  | > 3200 | > 30000 | Cn1cc2c3cc(C(=O)N4CC[C@H](O)C4)sc3n(-c3ccc(C(F)(F)F)cc3)c2n1 [Compound 69, (3S)-1-{4-methyl-7-[4-(trifluoromethyl)phenyl]-9-thia-4,5,7-triazatricyclo[6.3.0.0^2,6]undeca-1(8),2,5,10-tetraene-10-carbonyl}pyrrolidin-3-ol]
8 | 100 to 1000 |  | > 30000 | > 30000 | Cn1cc2c3cc(-c4noc(=O)[nH]4)sc3n(-c3ccc(C(F)(F)F)cc3)c2n1 [Compound 80, 3-{4-methyl-7-[4-(trifluoromethyl)phenyl]-9-thia-4,5,7-triazatricyclo[6.3.0.0^2,6]undeca-1(8),2,5,10-tetraen-10-yl}-4,5-dihydro-1,2,4-oxadiazol-5-one]
9 | 1 to 100 |  | > 30000 | > 30000 | Cn1cc2c3cc(C(=O)NC4(CO)CC4)sc3n(-c3ccc(C(F)(F)F)cc3)c2n1 [Compound 91, N-[1-(hydroxymethyl)cyclopropyl]-4-methyl-7-[4-(trifluoromethyl)phenyl]-9-thia-4,5,7-triazatricyclo[6.3.0.0^2,6]undeca-1(8),2,5,10-tetraene-10-carboxamide]
10 | 100 to 1000 |  | > 3000 | > 30000 | CC[C@@H](CO)NC(=O)c1cc2c3cn(C)nc3n(-c3ccc(C(F)(F)F)cc3)c2s1 [Compound 92, N-[(2S)-1-hydroxybutan-2-yl]-4-methyl-7-[4-(trifluoromethyl)phenyl]-9-thia-4,5,7-triazatricyclo[6.3.0.0^2,6]undeca-1(8),2,5,10-tetraene-10-carboxamide]

— US20260159525A1, “TRICYCLIC HETEROCYCLES” (Merck Patent GmbH, priority 2021, published 2026)
